Numbering of substitutions follows the chain as printed.
Tests used:
rP2X4R N287A mutant = biological target: T1, rP2X4R N287A mutant (Rattus norvegicus, UniProt P51577, N287A); assay: whole-cell patch clamp, HEK293T cells expressing mutant; assay type: cell-based
T1 construct: expressed in transfected cells; host or cells: HEK293T
T1 sequence (P51577 1-388 N287A): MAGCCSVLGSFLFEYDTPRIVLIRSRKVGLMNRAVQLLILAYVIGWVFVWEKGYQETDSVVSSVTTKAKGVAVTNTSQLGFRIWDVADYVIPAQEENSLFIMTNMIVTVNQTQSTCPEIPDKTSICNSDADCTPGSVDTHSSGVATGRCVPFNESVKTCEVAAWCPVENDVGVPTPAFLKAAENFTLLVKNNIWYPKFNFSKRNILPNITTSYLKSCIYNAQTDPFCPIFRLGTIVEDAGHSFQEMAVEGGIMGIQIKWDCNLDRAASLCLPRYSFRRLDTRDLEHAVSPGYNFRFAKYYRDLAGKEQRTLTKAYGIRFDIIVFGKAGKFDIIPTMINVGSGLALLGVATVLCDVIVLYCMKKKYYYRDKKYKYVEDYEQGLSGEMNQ

rP2X4R S289A mutant = biological target: T2, rP2X4R S289A mutant (Rattus norvegicus, UniProt P51577, S289A); assay: as above; assay type: cell-based
T2 construct: expressed in transfected cells; host or cells: HEK293T
T2 sequence (P51577 1-388 S289A): T1 sequence (P51577 1-388 N287A) with A287N, S289A

P2X4R D280A = system: P2X4R D280A; parameters: method as in PMID 17663752, PMID 15632318; conditions: cited from earlier work
P2X4R V288A = system: P2X4R V288A; parameters: method as in PMID 24943126; conditions: cited from earlier work
P2X1R G288C = system: P2X1R G288C; parameters: method as in PMID 17428985; conditions: cited from earlier work
P2X1R N204A = system: P2X1R N204A; parameters: method as in PMID 16371009; conditions: cited from earlier work
[1] = 3 µM IVM 4-6 min vs IVM-untreated
[2] = 100 µM ATP 60 s, biexponential fit
[3] = contribution of τdes2, 100 µM ATP 60 s
[4] = decay after removal of 1 or 3 µM ATP, 3 µM IVM
[5] = naïve receptors, 2–5 s application

CC[C@H](C)[C@H]1O[C@]2(CC[C@@H]1C)C[C@@H]1C[C@@H](C/C=C(\C)[C@@H](O[C@H]3C[C@H](OC)[C@@H](O[C@H]4C[C@H](OC)[C@@H](O)[C@H](C)O4)[C@H](C)O3)[C@@H](C)/C=C/C=C3\CO[C@@H]4[C@H](O)C(C)=C[C@@H](C(=O)O1)[C@]34O)O2 [IVM, ivermectin]
Fold incr. Imax (rP2X4R N287A mutant; [1]): 3.3 ± 0.4 fold | Fold incr. Imax (rP2X4R S289A mutant; [1]): 3.2 ± 0.2 fold

Nc1ncnc2c1ncn2[C@@H]1O[C@H](COP(=O)(O)OP(=O)(O)OP(=O)(O)O)[C@@H](O)[C@H]1O [ATP]
fold increase of EC50 for ATP in comparison to WT (P2X4R D280A): D280A ↑>100x[10], [52] | fold increase of EC50 for ATP in comparison to WT (P2X4R V288A): V288A: ↑2x[49] | fold increase of EC50 for ATP in comparison to WT (P2X1R G288C): 10 x | τdes1 (rP2X4R N287A mutant; [2]): 1.6 ± 0.1 s | τdes2 (rP2X4R N287A mutant; [2]): 10.2 ± 3.0 s | Imax (rP2X4R N287A mutant; 100–1000 µM ATP): 1.6 ±0.2 nA | Imax+IVM (rP2X4R N287A mutant; ATP after 3 µM IVM 4-6 min): 4.0 ± 0.6 nA | A2 /(A1+A2) (rP2X4R N287A mutant; [3]): 75 ± 16% | τoff +IVM (rP2X4R N287A mutant; [4]): 16 ± 2.5 s | EC50 (rP2X4R N287A mutant; [5]): 3.2 ± 1 µM | τdes (rP2X4R N287A mutant; weighted, 100 µM ATP 60 s): 7.1 ± 0.5 s | τdes1 (rP2X4R S289A mutant; [2]): 0.9 ± 0.3 s | τdes2 (rP2X4R S289A mutant; [2]): 11.3 ± 0.6 s | Imax (rP2X4R S289A mutant; 100–1000 µM ATP): 1.4 ± 0.2 nA | Imax+IVM (rP2X4R S289A mutant; ATP after 3 µM IVM 4-6 min): 4.5 ± 1.1 nA | A2 /(A1+A2) (rP2X4R S289A mutant; [3]): 56 ± 7% | τoff +IVM (rP2X4R S289A mutant; [4]): 15 ± 1.1 s | EC50 (rP2X4R S289A mutant; [5]): 3.6 ± 1.9 µM | τdes (rP2X4R S289A mutant; weighted, 100 µM ATP 60 s): 6.8 ± 1.0 s | fold increase of EC50 for ATP in comparison to WT (P2X1R N204A): N204A: ↑3,5x[45]

— article PMC4232510, “Identification of Functionally Important Residues of the Rat P2X4 Receptor by Alanine Scanning Mutagenesis of the Dorsal Fin and Left Flipper Domains” (PLoS ONE, 2014)
